Structures can show the parent of a compound that is named as a salt. Where two headings read alike, the source gives them in different places.
Legend:
[1] = target: T1, GST-cGB-PDE5 fusion protein (cGMP binding sites of human PDE5A) (Homo sapiens, UniProt O76074); test: cGMP binding assay with GST-cGB-PDE5 fusion protein; details: for competition with cGMP in binding of GST-cGB-PDE5: high concentration (100 μM) vs cGMP (2 μM)
T1 construct: made in house; host or cells: E. coli BL21 (DE3)
Description: RT-PCR method is used to obtain the cGB domain of PDE5 with forward and reverse primers designed from bovine PDE5A cDNA sequence (McAllister-Lucas L. M. et al, J. Biol. Chem. 268, 22863-22873, 1993) and the selection among PDE 1-10 families. 5′-3′, Inc. kits for total RNA followed by oligo (dT) column purification of mRNA are used with HT-29 cells. […] It is then cloned into pGEX-5×-3 […] (GST) fusion vector (Pharmacia Biotech) with tac promoter, and EcoRI and XhoI cut sites. The fusion vector is then transfected into E. Coli BL21 (DE3) bacteria (Invitrogen). The transfected BL21 bacteria is grown to log phase, and then IPTG is added as an inducer. The induction is carried at 20° C. for 24 hrs. The bacteria are harvested and lysed. The soluble cell lysate is incubated with GSH conjugated Sepharose 4B (GSH-Sepharose 4B). The GST-cGB-PDE5 fusion protein can bind to the GSH-Sepharose beads, and the other proteins are washed off from beads with excessive cold PBS.
The vials are counted on a Beckman LS 6500 scintillation counter.
The quenching by filter membrane or other debris are also calibrated.

[2] = in vivo; cited from earlier work
[3] = Seven-day dose-range finding study in rats; assay type: in vivo; details: 7 days, 500 mg/kg/day
[4] = Long-term safety assessment, 91 consecutive days, rats; assay type: in vivo; details: 91 days, 200 and 500 mg/kg/day
Description: These changes were not associated with any gross clinical abnormality.

U937 cells = test: Apoptosis induction of U937 cells (active caspase 3, indirect immunofluorescence); assay type: cell-based; details: 1 μM, 24 hours
Procedure: The presence of PDE2 and PDE5 protein within U937 cells was confirmed by indirect immunofluorescence (IIF). U937 cells were cultured as above. Two U937 cultures, one grown in the presence of 5 nM TPA for 48 hours and one grown in normal media were processed. All cultures were collected by centrifugation (Shandon Cytospin, 2 minutes @ 600 rpm) onto poly-L lysine-coated slides and immediately fixed in fresh 3% paraformaldehyde buffered in PBS for 10 minutes. Adherent cultures were grown on coverslips and fixed as above. Cells were permeablized in 0.2% triton-100 for 2 minutes. Slides were blocked with blocking buffer (5% goat serum, 5% glycerol, 1% gelatin from cold water fish skin and 0.04% NaN3 in PBS) for 1 hour at room temperature.
Slides were then incubated for 1 hour at 37° C. in a humid chamber with antibodies specific for PDE2 (generated in a sheep against the peptide […]) or PDE5 (generated in sheep against the peptide […]). The PDE5 antibody was used at a dilution of 1:200 and the PDE2 antibody was used at a dilution of 1:100. All dilutions were performed in blocking buffer. […]
The level of apoptosis in U937 cells was quantified by scoring 500 consecutive cells for the presence of active caspase 3. […]

T1 sequence (O76074 46-539 limits assumed): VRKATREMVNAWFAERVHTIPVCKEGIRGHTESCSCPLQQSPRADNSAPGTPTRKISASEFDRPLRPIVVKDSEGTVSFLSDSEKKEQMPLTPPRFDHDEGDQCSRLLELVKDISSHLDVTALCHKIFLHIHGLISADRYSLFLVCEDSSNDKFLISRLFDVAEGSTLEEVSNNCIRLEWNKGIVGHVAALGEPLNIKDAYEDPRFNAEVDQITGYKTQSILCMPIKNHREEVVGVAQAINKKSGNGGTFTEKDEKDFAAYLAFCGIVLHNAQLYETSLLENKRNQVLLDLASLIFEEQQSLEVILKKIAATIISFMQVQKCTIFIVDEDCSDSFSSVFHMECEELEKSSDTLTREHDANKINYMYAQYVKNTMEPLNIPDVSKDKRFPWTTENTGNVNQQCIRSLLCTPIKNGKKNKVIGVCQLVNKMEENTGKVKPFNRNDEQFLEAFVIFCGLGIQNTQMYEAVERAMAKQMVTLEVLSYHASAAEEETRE

Compound | competition with cGMP in binding of GST-cGB-PDE5 (cGMP binding sites) ([1]; 3H-cGMP 2 μM, 22° C., 1 hour) | other results
CCCCOC1C2OP(=O)(O)OCC2OC1n1cnc2c(=O)[nH]c(N)nc21 (stereo not shown) [2′-O-butyl-cGMP] | did not compete with cGMP in binding | –
O=c1ccn([C@@H]2O[C@@H]3COP(=O)(O)O[C@H]3[C@H]2O)c(=O)[nH]1 [cUMP, cyclic UMP] | did not compete with cGMP in binding | –
CCCOc1ccccc1-c1nc2nn[nH]c2c(=O)[nH]1 [zaprinast] | None of the PDE5 inhibitors showed any competition with cGMP | –
Nc1ccn([C@@H]2O[C@@H]3COP(=O)(O)O[C@H]3[C@H]2O)c(=O)n1 [cCMP, cyclic CMP] | did not compete with cGMP in binding | –
CSc1ccc(/C=C2/C(C)=C(CC(=O)O)c3cc(F)ccc32)cc1 [Sulindac sulfide, sulindac sulfide] | None of the PDE5 inhibitors showed any competition with cGMP | –
O=c1[nH]cnc2c1ncn2[C@@H]1O[C@@H]2COP(=O)(O)O[C@H]2[C@H]1O [Cyclic IMP, cyclic IMP] | – | competition with cGMP in binding of GST-cGB-PDE5 [1]: can partially compete with cGMP
interferon gamma: interferon, drug that affects certain factors in the immune system | – | skin symptoms [2]: modest improvement in skin symptoms
O=C(O)C1CCN(c2nc(NCc3ccc4c(c3)OCO4)c3cc(Cl)ccc3n2)CC1 [Example E4021] | None of the PDE5 inhibitors showed any competition with cGMP | –
CC1=C(CC(=O)O)c2cc(F)ccc2/C1=C\c1ccc(S(C)(=O)=O)cc1 [exisulind] | None of the PDE5 inhibitors showed any competition with cGMP | –
CC1=C(CC(=O)NCc2ccccc2)c2cc(F)ccc2/C1=C\c1ccncc1 [Compound 38, (Z)-5-Fluoro-2-Methyl-(4-Pyridylidene)-3-(N-Benzyl) Indenylacetamide Hydrochloride] | does not bind to the cGMP-binding site of PDE5 | treatment-related effects [3]: limited to an increase in absolute and relative liver weights in female rats; microscopic findings [4]: slight hepatocellular hypertrophy at 200 and 500 mg/kg/day groups, follicular cell hypertrophy at 500 mg/kg/day and increase in accumulation of hyalin droplets in the kidneys at 200 and 500 mg/kg/day group; apoptosis by presence of active caspase 3 (FIG. 8) (U937 cells): undergoing apoptosis
CCCCOC1C2OP(=O)(O)OCC2OC1n1cnc2c(N)ncnc21 (stereo not shown) [2′-O-butyl-cAMP] | did not compete with cGMP in binding | –
Nc1ncnc2c1ncn2[C@@H]1O[C@@H]2COP(=O)(O)O[C@H]2[C@H]1O [Cyclic AMP] | – | competition with cGMP in binding of GST-cGB-PDE5 (cGMP binding sites) [1]: did not compete with cGMP in binding
Nc1nc2c(nc(Br)n2[C@@H]2O[C@@H]3COP(=O)(O)O[C@H]3[C@H]2O)c(=O)[nH]1 [Example 8-bromo-cGMP, 8-bromo-cGMP] | – | competition with cGMP in binding of GST-cGB-PDE5 [1]: can partially compete with cGMP
